Here are results for four molecules from ChEMBL document CHEMBL1147581, “Development of novel lipid-peptide hybrid compounds with antibacterial activity from natural cationic antibacterial peptides” (Bioorg Med Chem Lett, 2004).

Values after ≈ are worked out from the molar mass of the structure shown. Active and inactive are the calls of the source. Residues, ends and D or L forms follow the SMILES beside them.

Data set [1] has as its system Escherichia coli. Put plainly: Minimum inhibitory concentration against Escherichia coli ATCC 25922. Format: functional.
In data set [2] the test system is Candida albicans. Put plainly: Minimum inhibitory concentration against Candida albicans ATCC 36232. Format: functional.
Data set [3] has as its system Staphylococcus aureus. Put plainly: Minimum inhibitory concentration against Staphylococcus aureus ATCC 6538. The data set is classed as functional.
For data set [4], the system named is Pseudomonas aeruginosa. Put plainly: Minimum inhibitory concentration against Pseudomonas aeruginosa ATCC 9027. The data set is classed as functional.
The nature of data set [5]: Minimum inhibitory concentration against Micrococcus luteus ATCC 9341. The data set is classed as functional.
Data set [6] is filed under the species Mus musculus. The data set can be described thus: Concentration required for half-maximal lysis of mouse erythrocytes; NA = not active. The data set is classed as functional, organism-based.
Data set [7] in a line: Stability of the peptide in the presence of mouse serum. Format: ADME, organism-based.

By MIC is commonly meant the smallest concentration in the dilution series that meets the test's criterion for growth inhibition. In the case of `CC[C@H](C)[C@H](NC(=O)CN)C(=O)NCC(=O)N[C@@H](CCCCN)C(=O)N[C@@H](Cc1ccccc1)C(=O)N[C@@H](CC(C)C)C(=O)N[C@@H](Cc1c[nH]cn1)C(=O)N[C@@H](CO)C(=O)N[C@@H](C)C(=O)N[C@@H](CCCCN)C(=O)N[C@@H](CCCCN)C(=O)N[C@@H](Cc1ccccc1)C(=O)NCC(=O)N[C@@H](CCCCN)C(=O)N[C@@H](C)C(=O)N[C@@H](Cc1ccccc1)C(=O)N[C@H](C(=O)NCC(=O)N[C@@H](CCC(=O)O)C(=O)N[C@H](C(=O)N[C@@H](CCSC)C(=O)N[C@@H](CC(N)=O)C(=O)N[C@@H](CO)C(=O)O)[C@@H](C)CC)C(C)C` [MAGAININ 2] (H-GIGKFLHSAKKFGKAFVGEIMNS-OH), the MIC amounted to 20 µg/mL (≈ 8.11 µM) in data set [1]; 50 µg/mL (≈ 20.3 µM) in data set [2]; 40 µg/mL (≈ 16.2 µM) in data set [3]; 20 µg/mL (≈ 8.11 µM) in data set [4]; 50 µg/mL (≈ 20.3 µM) in data set [5]. Also, the HD50 result in data set [6] was “inactive”.
Turning to `CC[C@H](C)[C@H](NC(=O)CN)C(=O)NCC(=O)N[C@@H](C)C(=O)N[C@H](C(=O)N[C@@H](CC(C)C)C(=O)N[C@@H](CCCCN)C(=O)N[C@H](C(=O)N[C@@H](CC(C)C)C(=O)N[C@H](C(=O)N[C@H](C(=O)NCC(=O)N[C@@H](CC(C)C)C(=O)N1CCC[C@H]1C(=O)N[C@@H](C)C(=O)N[C@@H](CC(C)C)C(=O)N[C@H](C(=O)N[C@@H](CO)C(=O)N[C@@H](Cc1c[nH]c2ccccc12)C(=O)N[C@H](C(=O)N[C@@H](CCCCN)C(=O)N[C@@H](CCCNC(=N)N)C(=O)N[C@@H](CCCCN)C(=O)N[C@@H](CCCNC(=N)N)C(=O)N[C@@H](CCC(N)=O)C(=O)N[C@@H](CCC(N)=O)C(N)=O)[C@@H](C)CC)[C@@H](C)CC)[C@@H](C)O)[C@@H](C)O)C(C)C)C(C)C` [MELITTIN], the results for the MIC in data set [2] and in data set [5] were 1.56 µg/mL (≈ 0.548 µM) and 0.78 µg/mL (≈ 0.274 µM), respectively. The HD50 entry in data set [6] was “inactive”.
The term half-life denotes the time needed for the level to fall by half in the phase considered. As for `CC[C@H](C)[C@H](NC(=O)[C@H](Cc1ccc(O)cc1)NC(=O)[C@H](CCCCN)NC(=O)[C@H](CCCCN)NC(C)=O)C(=O)N[C@@H](CCCCN)C(=O)N[C@H](C(=O)N[C@@H](Cc1ccccc1)C(=O)N[C@H](C(=O)N[C@@H](Cc1ccccc1)C(=O)N[C@@H](CCCCN)C(N)=O)C(C)C)C(C)C` (Ac-KKYIKVFVFK-NH2), the half-life in data set [7] amounted to 30 min. This molecule returned an MIC in data set [3] of 100 µg/mL (≈ 74.6 µM).
As for `CC[C@H](C)[C@H](NC(=O)[C@H](Cc1ccc(O)cc1)NC(=O)[C@H](CCCCN)NC(=O)[C@@H](N)CCCCN)C(=O)N[C@@H](CCCCN)C(=O)N[C@H](C(=O)N[C@@H](Cc1ccccc1)C(=O)N[C@H](C(=O)N[C@@H](Cc1ccccc1)C(=O)N[C@@H](CCCCN)C(N)=O)C(C)C)C(C)C` (H-KKYIKVFVFK-NH2), the half-life in data set [7] was found to be 8 min. This molecule returned an MIC in data set [3] of 6.3 µg/mL (≈ 4.85 µM).
